Measurements: article PMC8779952, “The First Dimeric Derivatives of the Glycopeptide Antibiotic Teicoplanin” (Pharmaceuticals, 2022)
Values after ≈ are worked out from the molar mass of the structure shown. Where two headings read alike, the source gives them in different places.

Key:
Format in all cases: cell-based
[1] = system: Staphylococcus aureus MSSA ATCC 29213
Experimental: (§1) The antibacterial evaluations were carried out as described in our previous publication. TLC was performed on Kieselgel 60 F254 (Merck) with detection either by immersion in ammonium molybdate–sulfuric acid solution followed by heating or by using Pauly’s reagent for detection. Flash column chromatography was performed using Silica gel 60 (Merck 0.040–0.063 mm).

[2] = system: Enterococcus faecalis ATCC 29212
Experimental: as §1

[3] = system: Staphylococcus epidermidis mecA
Experimental: as §1

[4] = system: Staphylococcus epidermidis ATCC 35984 biofilm
Experimental: as §1

[5] = system: Enterococcus faecalis 15376 VanA; conditions: Enterococcus faecalis 15376 VanA (vanA gene positive, teicoplanin-resistant)
Experimental: as §1

[6] = system: Bacillus subtilis ATCC 6633
Experimental: as §1

[7] = system: Staphylococcus aureus MRSA ATCC 33591
Experimental: as §1

[8] = system: Enterococcus faecalis ATCC 51299 VanB
Experimental: as §1

[9] = Enterococcus faecalis ATCC 51299 VanB (vanB gene positive)

Question: How did the MIC ([1]; ATCC 29213) turn out when `CC(=O)N[C@H]1[C@H](O[C@@H]2c3ccc(c(Cl)c3)Oc3cc4cc(c3O)Oc3ccc(cc3Cl)C[C@H]3NC(=O)[C@H](N)c5ccc(O)c(c5)Oc5cc(O)cc(c5)[C@H](NC3=O)C(=O)N[C@H]4C(=O)N[C@H]3C(=O)N[C@@H]2C(=O)N[C@H](C(=O)O)c2cc(O)cc(O[C@H]4O[C@H](CO)[C@@H](O)[C@H](O)[C@@H]4O)c2-c2cc3ccc2O)O[C@H](CO)[C@@H](O)[C@@H]1O` [Compound 2] was run?
Answer: 4 µg/mL (≈ 2.56 µM)

Question: And the MIC ([2]; ATCC 29212)?
Answer: 8 µg/mL (≈ 5.11 µM)

Question: And the MIC ([3]; mecA)?
Answer: 4 µg/mL (≈ 2.56 µM)

Question: What about the MIC ([4]; ATCC 35984) of the same compound?
Answer: 2 µg/mL (≈ 1.28 µM)

Question: And the MIC [5]?
Answer: 4 µg/mL (≈ 2.56 µM)

Question: And the MIC ([6]; ATCC 6633)?
Answer: 2 µg/mL (≈ 1.28 µM)

Question: And the MIC ([7]; ATCC 33591)?
Answer: 2 µg/mL (≈ 1.28 µM)

Question: And the MIC [8, 9]?
Answer: 8 µg/mL (≈ 5.11 µM)

Question: With `CC(=O)N[C@H]1[C@H](O[C@@H]2c3ccc(c(Cl)c3)Oc3cc4cc(c3O)Oc3ccc(cc3Cl)C[C@H]3NC(=O)[C@H](N)c5ccc(O)c(c5)Oc5cc(O)cc(c5)[C@H](NC3=O)C(=O)N[C@H]4C(=O)N[C@H]3C(=O)N[C@@H]2C(=O)N[C@H](C(=O)O)c2cc(O)cc(O)c2-c2cc3ccc2O)O[C@H](CO)[C@@H](O)[C@@H]1O` [Compound 3, teicoplanin pseudoaglycone] as the compound, how does the MIC ([1]; ATCC 29213) read?
Answer: 2 µg/mL (≈ 1.43 µM)

Question: And the MIC ([2]; ATCC 29212)?
Answer: 4 µg/mL (≈ 2.85 µM)

Question: What about the MIC ([3]; mecA) of the same compound?
Answer: 1 µg/mL (≈ 0.713 µM)

Question: And the MIC ([4]; ATCC 35984)?
Answer: 2 µg/mL (≈ 1.43 µM)

Question: And the MIC [5]?
Answer: 256 µg/mL (≈ 183 µM)

Question: What about the MIC ([6]; ATCC 6633) of the same compound?
Answer: 2 µg/mL (≈ 1.43 µM)

Question: What about the MIC ([7]; ATCC 33591) of the same compound?
Answer: 1 µg/mL (≈ 0.713 µM)

Question: And the MIC ([8]; ATCC 51299)?
Answer: 2 µg/mL (≈ 1.43 µM)

Question: Which results are given for Teicoplanin [Teico (1)]?
Answer: MIC ([1]; Staphylococcus aureus MSSA ATCC 29213 (methicillin-sensitive)): 0.5 µg/mL; MIC ([2]; Enterococcus faecalis ATCC 29212): 2 µg/mL; MIC ([3]; Staphylococcus epidermidis mecA (mecA gene expression)): 16 µg/mL; MIC ([4]; Staphylococcus epidermidis ATCC 35984 biofilm): 2 µg/mL; MIC [5]: 256 µg/mL; MIC ([6]; Bacillus subtilis ATCC 6633, minimum inhibitory concentration): 0.5 µg/mL; MIC ([7]; Staphylococcus aureus MRSA ATCC 33591 (methicillin-resistant)): 0.5 µg/mL; MIC [8, 9]: 4 µg/mL
